# Laboratory results published in patent US10227369B2, “Short-chain fatty acid hexosamine analogs and their use in tissue engineering applications” (THE JOHNS HOPKINS UNIVERSITY, priority 2013, dated 2019).
# “Also recorded” adds a separate entry of the source.
# What was measured:
# Assay type in all cases: cell-based, bovine
# [1] = system: IL-1β-stimulated chondrocytes; assay: IL-1β-stimulated chondrocytes in 3D PEGDA hydrogels: biochemical analysis (DNA, sGAG, collagen), histology, immunohistochemistry; settings: 10 ng/ml IL-1β; for DNA content of cell-laden hydrogels (cell viability): 21 days exposure, up to 150 μM
# Method: (§1) Cell Isolation and Culturing. Bovine chondrocytes were isolated from 4- to 8-week-old calves (Research 87, Inc., Boylston, Mass.), as previously described. Briefly, cartilage was dissected from the femoral patellar groove and condyles and minced into approximately 1 mm^2 pieces. Cells were isolated from the tissue by digesting overnight at 37° C. with 2 mg/ml type II collagenase (Worthington Biochemical Corp., Lakewood, N.J.), 5% fetal bovine serum (FBS), 100 U/ml penicillin and 100 μg/ml streptomycin on an orbital shaker. The cell suspension was passed through a 70 μm cell strainer, followed by centrifugation. Cells were washed 3 times using sterile phosphate buffered saline (PBS). Chondrocyte medium was composed of high glucose Dulbecco's Modified Eagle's Medium (DMEM) supplemented with 10 mM HEPES, 0.4 mM L-proline, 50 μg/ml ascorbic acid, 10% (v/v) fetal bovine serum (FBS; Hyclone Laboratories, Inc., Logan, Utah), 0.1 mM non-essential amino acids, 100 U/ml penicillin and 100 μg/ml streptomycin.
# (§2) Photoencapsulation in Poly(Ethylene Glycol)-Diacrylate (PEGDA) Hydrogels and Construct Culturing. For all 3D culture experiments, cells were photoencapsulated in PEGDA hydrogels, as previously described. Briefly, 100 mg PEGDA (3.4 kDa, SunBio, Anyang City, South Korea) was dissolved in 1 ml sterile PBS. A photoinitiator solution of Irgacure® 2959 (CIBA Specialty Chemicals) was prepared by dissolving 100 mg of Irgacure® 2959 in 1 ml 70% ethanol. Five microliters of the Irgacure® 2959 solution was added to 1 ml of PEGDA solution. Cells were suspended in the hydrogel precursor solution at a density of 20 million cells/ml and polymerized in sterile molds. A high cell density was chosen as it has been shown. Based on our previous studies a high cell density was chosen to best to support a cell phenotype and differentiation and cell phenotype. Polymerization was carried out using UV light (365 nm, 3.2 mW/cm^2) exposure for 5 minutes.
# (§3) For chondrocyte experiments, the cell-laden hydrogels were cultured in chondrocyte medium supplemented with 10 ng/ml IL-1β for 3 days. Following the initial 3 days, constructs were cultured with medium containing specific concentrations of hexosamine analog with 10 ng/ml IL-1β for an additional 21 days. The medium was changed 3 times per week.
# (§4) Biochemical Analysis. The constructs (n=3 for chondrocyte experiments and n=4 for chondrogenic experiments) were lyophilized for 48 hours and the dry weights measured. Constructs were then homogenized in 125 μg/ml papainase (Worthington Biochemical Corp., Lakewood, N.J.) and digested for 16 hours at 60° C. Quantification of DNA content was carried out using a Hoescht Dye 33342 DNA assay. Calf thymus DNA was used to generate standard curves. Quantification of sulfated glycosaminoglycans (sGAG), a molecule found in cartilage ECM, was carried out using a 1,9-dimethylmethylene blue (DMMB) dye assay; chondroitin sulfate was used to generate standard curves. Quantification of collagen was carried out via measuring hydroxyproline content after hydrolyzing in 6 N HCl overnight at 120° C. The reaction of hydroxyproline with chloramine-T and p-dimethylaminobenzaldehyde was performed as a measure of total collagen content; hydroxyproline was used to generate standard curves.
# Histology and Immunohistochemistry. Constructs were fixed in 10% formalin or 4% paraformaldehyde followed by dehydration in increasing concentrations of ethanol, embedded in paraffin and sliced into 5 μm sections. After paraffin removal and subsequent rehydration, sections were stained for proteoglycans using Safranin-O and fast green or prepared for immunohistochemistry. For immunohistochemical staining of type II collagen, endogenous peroxidase was quenched using 3% (v/v) hydrogen peroxide in methanol. Sections were then incubated at 37° C. with 2.5% (w/v) hyaluronidase and stained using a Histostain-SP Kit (AEC, Broad Spectrum) (Life Technologies, Grand Island, N.Y.) following the manufacturer's instructions. […]
# [2] = system: IL-1β-stimulated chondrocytes; assay: IL-1β-stimulated chondrocytes in 3D PEGDA hydrogels: real-time PCR gene expression; settings: 10 ng/ml IL-1β, 21 days
# Method: as §1, §2, §3
# (§5) RNA Isolation and Real-Time PCR. Total RNA was extracted using TRIzol® reagent (Life Technologies, Grand Island, N.Y.) following the manufacturer's protocol. cDNA was synthesized using Superscript® II reverse transcriptase (Life Technologies, Grand Island, N.Y.) following the manufacturer's protocol. Real-time PCR was carried out using a StepOnePlus™ Real-Time PCR System (Life Technologies, Grand Island, N.Y.). mRNA amounts for bovine primers were calculated using the ΔΔCt method. Relative mRNA quantities for goat primers were calculated using the Pfaffl method.
# [3] = system: IL-1β stimulated chondrocytes; assay: Monolayer chondrocytes with IL-1β: real-time PCR of NFκB target genes; settings: 50 μM, 10 ng/ml IL-1β
# Method: as §1
# Monolayer cell culture. […]
# RNA Isolation and Real-Time PCR. […] Real-time PCR was carried out using a StepOnePlus™ Real-Time PCR System (Life Technologies, Grand Island, N.Y.). mRNA amounts for bovine primers were calculated using the ΔΔCt method. Relative mRNA quantities for goat primers were calculated using the Pfaffl method.
# [4] = system: unstimulated chondrocytes; assay: Unstimulated (no IL-1β) chondrocytes in 3D PEGDA hydrogels: biochemical analysis and histology; settings: for DNA content of cell-laden hydrogels (cell viability): 21 days exposure; for sGAG deposition / total collagen accumulation / type II collagen immunostaining: 21 days
# Method: as §1, §2, §4
# Histology and Immunohistochemistry. Constructs were fixed in 10% formalin or 4% paraformaldehyde followed by dehydration in increasing concentrations of ethanol, embedded in paraffin and sliced into 5 μm sections. After paraffin removal and subsequent rehydration, sections were stained for proteoglycans using Safranin-O and fast green or prepared for immunohistochemistry. For immunohistochemical staining of type II collagen, endogenous peroxidase was quenched using 3% (v/v) hydrogen peroxide in methanol. Sections were then incubated at 37° C. with 2.5% (w/v) hyaluronidase and stained using a Histostain-SP Kit (AEC, Broad Spectrum) (Life Technologies, Grand Island, N.Y.) following the manufacturer's instructions. Primary antibody for type II collagen (Fitzgerald Industries International, Acton, Mass.) was used at a dilution of 1:100 in 1% (w/v) BSA dissolved in PBS.
# [5] = system: unstimulated chondrocytes; assay: Unstimulated (no IL-1β) chondrocytes in 3D PEGDA hydrogels: real-time PCR gene expression; settings: 21 days
# Method: as §1, §2, §5
# [6] = concentrations similar to increased ECM accumulation
# [7] = across the concentrations evaluated
structure (smiles),measurement,setting,value
"CCCC(=O)OC[C@H]1OC(O)[C@H](NC(C)=O)[C@@H](OC(=O)CCC)[C@@H]1OC(=O)CCC (some centres unmarked) [GlcNAc-a, 3,4,6-O-Bu3GlcNAc]",lowest concentration at which an increase in Safranin-O and type II collagen stains is observed,[1]; 21 days,25 µM
same,DNA content of cell-laden hydrogels (cell viability),[1],did not elicit a statistically significant difference
same,"type II collagen immunostaining, stain intensity versus no analog","[1]; 21 days, 25 μM and 150 μM",slight increase in stain intensity
same,change in sGAG deposition compared to no exposure,"[1]; 21 days, 50 μM",almost doubling
same,increase in collagen accumulation compared to no exposure,"[1]; 21 days, 50 μM and 100 μM",almost doubling
same,total collagen accumulation normalized to DNA,"[1]; 21 days, 50 μM and 100 μM",significant increase
same,type II collagen immunostaining,"[1]; 21 days, 50 μM and 100 μM",increase in type II collagen immunostaining
same,sGAG accumulation normalized to DNA,"[1]; 21 days, at 150 μM",decreased
same,sGAG accumulation normalized to DNA,"[1]; 21 days, concentrations up to 100 μM, versus no analog",increase in sGAG accumulation
same,IκBα gene expression,[2],decreased
same,"MMP13, NFκB1 and IκBα expression levels relative to unstimulated chondrocytes",[2],near to that of unstimulated
same,NFKB1 gene expression,[2],decreased
same,"aggrecan, type II collagen and type I collagen expression relative to unstimulated chondrocytes",[2],approached expression levels found in unstimulated chondrocytes
same,MMP13 gene expression,[2]; 150 μM,further decrease
same,aggrecan gene expression,[2]; [6],increased
same,type II collagen gene expression,[2]; [6],increased
same,MMP13 gene expression,[2]; higher concentrations (through 100 μM),decrease
same,type I collagen gene expression,[2]; intermediate concentrations,increased
same,MMP13 gene expression,[2]; low concentrations / lowest dose,initial increase
same,"expression levels of IL-1β, IκBα and iNOS",[3]; 4 hours exposure,able to alter expression levels of some of the genes
same,"expression levels of NFκB target genes (IL-1β, MMP13, ADAMTS4, ADAMTS5, iNOS, PGES, NFκB1, IκBα)","[3]; 24 hours exposure, MMP9 is the exception",decreased the expression levels of all genes evaluated
same,DNA content of cell-laden hydrogels (cell viability),[4],did not elicit a statistically significant difference
same,sGAG deposition,[4]; 150 μM,a decrease was observed
same,total collagen accumulation,[4]; above 50 μM,concentration dependent decrease
same,type II collagen immunostaining,[4]; above 50 μM,dose-dependent decrease
same,sGAG deposition,[4]; below 150 μM,did not have an effect
same,total collagen accumulation,[4]; through 50 μM,maintained collagen accumulation
same,type II collagen immunostaining,[4]; through 50 μM,no differences
same,type I collagen gene expression,[5],concentration-dependent decrease
same,MMP13 gene expression,[5]; after lowest dose through 100 μM,decrease
same,IκBα and NFκB1 gene expression,[5]; except the highest concentrations,Neither of these genes changed
same,IκBα and NFκB1 gene expression,[5]; highest concentrations studied,an increase was observed
same,MMP13 gene expression,[5]; lowest dose,initial increase
"CCCC(=O)OC[C@H]1OC(O)[C@@H](NC(C)=O)[C@@H](OC(=O)CCC)[C@@H]1OC(=O)CCC (some centres unmarked) [ManNAc-a, 3,4,6-O-Bu3ManNAc]",proteoglycan deposition (Safranin-O staining),"[1]; 21 days, at 150 μM",further increase
same,sGAG accumulation normalized to DNA,"[1]; 21 days, at 150 μM",further increase
"CCCC(=O)OC1OC(CO)[C@@H](OC(=O)CCC)[C@H](OC(=O)CCC)C1NC(C)=O (some centres unmarked) [1,3,4-O-Bu3GlcNAc, reference compound]",DNA content of cell-laden hydrogels (cell viability),[1],no statistical differences
same,sGAG accumulation normalized to DNA,"[1]; 21 days, across the concentrations evaluated",did not alter; also recorded: no statistical differences
same,total collagen deposition normalized to DNA,[1]; [7],did not alter; also recorded: no statistical differences
same,DNA content of cell-laden hydrogels (cell viability),[4],no statistical differences
same,sGAG deposition normalized to DNA,[4]; [7],did not alter; also recorded: no statistical differences
same,total collagen deposition normalized to DNA,[4]; [7],did not alter; also recorded: no statistical differences
